Results: PubChem BioAssay (NCI)
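Each compound was tested at five concentrations against cells in 96-well plates for 48 hours. The concentration for full growth arrest is given as TGI.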

Assays:
Assay in all cases: DTP human tumour cell line panel, 48 h
[1] = tested on: 786-0 renal
[2] = tested on: A498 renal
[3] = tested on: A549 NSCLC
[4] = tested on: ACHN renal
[5] = tested on: BT-549 breast
[6] = tested on: CAKI-1 renal
[7] = tested on: CCRF-CEM leukemia
[8] = tested on: COLO 205 colon
[9] = tested on: DU-145 prostate
[10] = tested on: EKVX NSCLC
[11] = tested on: HCC-2998 colon
[12] = tested on: HCT-116 colon
[13] = tested on: HCT-15 colon
[14] = tested on: HL-60(TB) leukemia
[15] = tested on: HOP-62 NSCLC
[16] = tested on: HOP-92 NSCLC
[17] = tested on: HS 578T breast
[18] = tested on: HT29 colon
[19] = tested on: IGROV1 ovarian
[20] = tested on: K-562 leukemia
[21] = tested on: KM12 colon
[22] = tested on: LOX IMVI melanoma
[23] = tested on: M14 melanoma
[24] = tested on: MALME-3M melanoma
[25] = tested on: MCF7 breast
[26] = tested on: MDA-MB-231 breast
[27] = tested on: MDA-MB-435
[28] = tested on: MDA-N
[29] = tested on: MOLT-4 leukemia
[30] = tested on: NCI-H226 lung
[31] = tested on: NCI-H23 lung
[32] = tested on: NCI-H460 lung
[33] = tested on: NCI-H522 lung
[34] = tested on: NCI/ADR-RES ovarian
[35] = tested on: OVCAR-3 ovarian
[36] = tested on: OVCAR-4 ovarian
[37] = tested on: OVCAR-5 ovarian
[38] = tested on: OVCAR-8 ovarian
[39] = tested on: PC-3 prostate
[40] = tested on: RPMI-8226 leukemia
[41] = tested on: RXF 393 renal
[42] = tested on: SF-268 CNS
[43] = tested on: SF-295 CNS
[44] = tested on: SF-539 CNS
[45] = tested on: SK-MEL-2 melanoma
[46] = tested on: SK-MEL-28 melanoma
[47] = tested on: SK-MEL-5 melanoma
[48] = tested on: SN12C renal
[49] = tested on: SNB-19 CNS
[50] = tested on: SNB-75 CNS
[51] = tested on: SR leukemia
[52] = tested on: SW-620 colon
[53] = tested on: TK-10 renal
[54] = tested on: U251 CNS
[55] = tested on: UACC-257 melanoma
[56] = tested on: UO-31 renal
[57] = tested on: SK-OV-3 ovarian
[58] = tested on: UACC-62 melanoma

Measured: TGI

CCOc1nc(-c2ccccc2)cc(-c2ccc(N3CCOCC3)cc2)c1C#N
not listed: [57] | [58]
> 100 µM: all other assays above

[N-]=[N+]=CC(=O)OCC1SCCCS1
not listed: [3] | [17] | [23] | [34] | [38] | [44] | [50]
> 100 µM: all other assays above
